Measured values from patent US20260226049A1, “NITROGEN-CONTAINING HETEROCYCLIC COMPOUND, PREPARATION METHOD THEREFOR, AND USE THEREOF” (BIVISION PHARMACEUTICALS, INC, priority 2023, published 2026).
Where two headings read alike, the source gives them in different places.

Test system: HT1080 8 #cells
Assay: Cell competitive binding assay against ^177Lu-radiolabeled FAPi-46
Description: (1) HT1080 8 #cells in the logarithmic growth phase were prepared into a cell suspension, and the cell density was adjusted to 1×10^4/mL. 1 mL of the suspension was seeded into a 24-well cell culture plate. The plate was incubated overnight in a 37° C. incubator.
(2) The cell culture medium was aspirated, and the cells were washed once with PBS, followed by the addition of 975 μL of additive-free medium.
(3) To each well, 25 µL of ^177Lu-radiolabeled FAPi-46 (Nanchang Tanzhen Biotechnology Co., Ltd., CAS: 2374782-04-2) at a fixed concentration (final concentration in culture medium: 1.35 μCi/mL) and varying concentrations (final concentrations in culture medium: 1000 ng/mL, 100 ng/ml, 10 ng/ml, 1 ng/mL, 0.1 ng/ml, 0.01 ng/mL, 0.001 ng/mL, 0 ng/ml) of unlabeled test compounds JHH8, JHDB8, and JHH9 were added.
(4) The mixture was incubated on ice for 2 hours.
(5) The cells were washed three times with ice-cold PBS.
(6) The cells were lysed with 0.5 mL of 1 M sodium hydroxide, washed twice with 0.5 mL of PBS, and the sodium hydroxide solution (0.5 mL) and PBS solutions (0.5 mL×2) were collected for uptake counting.
The control compound was OncoFAP-DOTAGA (structural formula: […]
The cell competitive binding of compounds JHH5, JHH4, JHH10, JHH8, H4b, H5b, and H8b was tested in the same batch using the above method, and the experimental results are shown in Table 3 and FIG. 3.

N#C[C@@H]1CC(F)(F)CN1C(=O)CNC(=O)c1cccc2c1CCN(C(=O)CCC(=O)NCCNC(=O)CCC(C(=O)O)N1CCN(CC(=O)O)CCN(CC(=O)O)CCN(CC(=O)O)CC1)C2 (some centres unmarked) [JHH5]
EC50 (EC50 (ng/mL) converted with molecular weight, read-out: EC50): 1.82 nM | EC50 (competition with ^177Lu-FAPi-46, on ice 2 hours): 1.726 ng/mL
